pIC50, pKi: −log10 of the molar value. Like-named read-outs stand apart in the source and are kept apart here.
Key:
[1] = Metabolic stability in liver microsomes, minipig; type: in vitro ADME
Description: The metabolic stability of compound (I) was tested in liver microsomes from all in house available species at 1 and 5 μM. One metabolite of 16 mass units higher than parent, was found in all incubations, except with human liver microsomes.

[2] = Tissue distribution after single dose, mouse; type: in vivo; settings: po; for AUC(0-t): female, NMRI, mouse 10 mg/kg p.o., read-out: AUC(0-24 h); for half-life: female NMRI mouse 10 mg/kg p.o., read-out: T½ (converted)
Description: Compound (I) was dosed to female NMRI mice 10 mg/kg p.o. Plasma was taken 0.5, 1, 2, 4, 6 and 24 post dose. Brain, liver and lung were taken 1, 4 and 24 hours post dose.
AUC and T½ were calculated for plasma and organs, even though the data are very sparse for the organs.

[3] = molecular target: Sigma σ1 (Homo sapiens, UniProt Q99720); assay: MDS LeadProfilingScreen, Sigma σ1; type: binding
[4] = Exposure and tissue distribution after 14 days repeat dosing, mouse; type: in vivo; settings: for concentration at 2 h / Kp at 2 h: mouse, po, 2 h post last dose
Description: Single time point data is available from two 14 days repeat dose studies in mice and rats dosed to both sexes. The three low doses were performed together as one study and the top dose was performed at another occasion as a satellite study.
Samples were taken 2 h post last dose.
Plasma, brain and liver were taken 2 h post last dose.

[5] = system: NMRI mice; assay: Mouse stress-induced hyperthermia test (mSIH); type: in vivo
Description: FIG. 14: Stress-induced hyperthermia. When mice are confronted with a stress-full event, the body temperature rises.
Compound (I) was tested in three widely used behavioural screens for predicting anxiolytic effects in the clinic: the mouse marble burying test (mMB), mouse zero maze (mZM) and mouse stress-induced hyperthermia test (mSIH).

[6] = molecular target: CYP 3A4 (Homo sapiens, UniProt P08684); assay: CYP450 inhibition, cocktail of selective substrates, 3A4; type: in vitro ADME; settings: CYP 3A4, Midazolam to 1′-hydroxymidazolam; read-out: IC50 of compound (I)
Description: Compound (I) was tested for CYP450 inhibition using a cocktail of selective substrates. […] This might be addressed later in a clinical study.

[7] = molecular target: NA transporter (Rattus norvegicus, UniProt Q63380); assay: ^3H-uptake rat, NA transporter; type: biochemical
Description: (§1) Compound (I) has been characterized as a monoamine reuptake inhibitor, based on the profile in a series of functional assays (Table 2).

[8] = molecular target: Nicotinic α4β2 (Rattus norvegicus, UniProt P09483+P12390); assay: In-house nicotinic binding assay, Nicotinic α4β2
[9] = 5 days p.o. tolerated dose study in female mice (non-GLP); type: in vivo, mouse; settings: p.o. 5 days, 3, 5, 15, 30, 60 mg/kg
[10] = system: NMRI mice; assay: Locomotor activity (mLA); type: in vivo, mouse
Description: FIG. 8: The effects of compound (I) on locomotor activity. Compound (I) p.o. in NMRI mice. TSE Motility.
Compound (I) was tested in a classical test often used to measure the ability of a compound to block the reuptake of 5-HT in vivo: nialamide-induced 5-HT syndrome (m5-HT). In addition, compound (I) was tested in a locomotor activity paradigm (mLA) as a measure of its ability to block the reuptake of DA and therefore induce motility. It is generally accepted that >60% DA transporter blockade is needed to induce increased motility in this test.

[11] = system: plasma protein; assay: Plasma protein binding by equilibrium dialysis, dog; type: in vitro ADME
Description: (§2) The plasma protein binding was tested in rat, mouse, dog and human plasma by equilibrium dialysis. The plasma protein binding of this compound is remarkably low (Table 24).

[12] = molecular target: NET (Homo sapiens, UniProt P23975); assay: MDS LeadProfilingScreen, NET; type: binding
[13] = molecular target: 5-HT transporter (Homo sapiens, UniProt P31645); assay: ^3H-Citalopram binding, human
Description: as §1

[14] = system: plasma protein; assay: Plasma protein binding by equilibrium dialysis, mouse; type: in vitro ADME
Description: as §2

[15] = molecular target: DAT (Homo sapiens, UniProt Q01959); assay: MDS LeadProfilingScreen, DAT; type: binding
[16] = molecular target: DA transporter (Homo sapiens, UniProt Q01959); assay: ^3H-uptake human, DA transporter; type: biochemical
Description: as §1

Sequence of DA transporter (Q01959 whole entry): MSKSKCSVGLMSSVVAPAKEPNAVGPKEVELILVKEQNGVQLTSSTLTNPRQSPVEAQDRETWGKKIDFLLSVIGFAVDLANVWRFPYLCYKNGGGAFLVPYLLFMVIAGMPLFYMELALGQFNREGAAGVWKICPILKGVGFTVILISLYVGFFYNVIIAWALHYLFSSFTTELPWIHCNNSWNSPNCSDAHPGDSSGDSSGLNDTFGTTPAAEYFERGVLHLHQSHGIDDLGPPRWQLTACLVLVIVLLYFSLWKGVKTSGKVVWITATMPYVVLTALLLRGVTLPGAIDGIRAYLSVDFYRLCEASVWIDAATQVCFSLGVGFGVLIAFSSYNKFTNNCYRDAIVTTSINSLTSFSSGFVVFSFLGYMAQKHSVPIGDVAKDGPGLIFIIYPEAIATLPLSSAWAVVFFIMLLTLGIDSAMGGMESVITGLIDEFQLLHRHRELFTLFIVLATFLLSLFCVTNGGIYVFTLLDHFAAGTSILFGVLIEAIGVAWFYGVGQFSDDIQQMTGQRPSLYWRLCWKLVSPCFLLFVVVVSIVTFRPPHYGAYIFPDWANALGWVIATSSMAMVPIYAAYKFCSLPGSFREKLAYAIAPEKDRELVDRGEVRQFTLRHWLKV
Sequence of NET (P23975 whole entry): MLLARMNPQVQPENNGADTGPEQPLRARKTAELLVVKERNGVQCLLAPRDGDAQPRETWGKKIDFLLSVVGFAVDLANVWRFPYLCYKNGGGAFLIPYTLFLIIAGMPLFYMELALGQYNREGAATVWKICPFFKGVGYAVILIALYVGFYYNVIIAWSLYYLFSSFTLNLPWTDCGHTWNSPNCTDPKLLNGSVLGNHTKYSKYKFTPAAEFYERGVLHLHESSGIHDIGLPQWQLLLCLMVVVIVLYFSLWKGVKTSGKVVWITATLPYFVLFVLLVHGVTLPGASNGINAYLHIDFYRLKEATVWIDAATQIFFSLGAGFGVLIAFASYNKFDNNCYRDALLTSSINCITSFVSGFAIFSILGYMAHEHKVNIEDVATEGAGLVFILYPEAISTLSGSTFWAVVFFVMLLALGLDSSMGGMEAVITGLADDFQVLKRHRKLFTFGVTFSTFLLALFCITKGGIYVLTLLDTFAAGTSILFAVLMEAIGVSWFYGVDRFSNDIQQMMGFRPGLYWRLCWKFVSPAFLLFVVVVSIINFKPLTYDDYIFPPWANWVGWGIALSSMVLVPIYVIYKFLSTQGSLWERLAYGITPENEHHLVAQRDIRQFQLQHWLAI
Sequence of DAT (Q01959 whole entry): as the sequence (Q01959 whole entry) above
Sequence of CYP 3A4 (P08684 whole entry): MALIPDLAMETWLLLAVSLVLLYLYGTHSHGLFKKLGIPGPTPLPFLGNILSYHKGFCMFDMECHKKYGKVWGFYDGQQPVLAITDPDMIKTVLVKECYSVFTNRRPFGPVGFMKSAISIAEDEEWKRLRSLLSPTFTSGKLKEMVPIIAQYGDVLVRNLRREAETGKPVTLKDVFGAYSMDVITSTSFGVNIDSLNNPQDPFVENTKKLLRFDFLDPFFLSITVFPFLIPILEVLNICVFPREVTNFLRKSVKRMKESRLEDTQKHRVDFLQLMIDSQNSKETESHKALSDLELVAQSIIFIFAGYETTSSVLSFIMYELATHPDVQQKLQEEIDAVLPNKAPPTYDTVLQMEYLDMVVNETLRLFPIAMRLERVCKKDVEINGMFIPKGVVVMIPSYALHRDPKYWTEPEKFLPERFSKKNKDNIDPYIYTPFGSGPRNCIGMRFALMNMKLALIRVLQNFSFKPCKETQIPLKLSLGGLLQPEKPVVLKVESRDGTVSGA
Sequence of Sigma σ1 (Q99720 whole entry): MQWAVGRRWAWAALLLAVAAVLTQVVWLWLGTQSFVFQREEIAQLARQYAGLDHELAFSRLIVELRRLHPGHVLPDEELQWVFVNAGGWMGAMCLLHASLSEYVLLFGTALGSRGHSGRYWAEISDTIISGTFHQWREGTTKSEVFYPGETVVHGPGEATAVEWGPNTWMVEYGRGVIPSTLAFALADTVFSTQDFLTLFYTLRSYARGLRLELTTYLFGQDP
Sequence of Nicotinic α4β2 (P09483 31-630): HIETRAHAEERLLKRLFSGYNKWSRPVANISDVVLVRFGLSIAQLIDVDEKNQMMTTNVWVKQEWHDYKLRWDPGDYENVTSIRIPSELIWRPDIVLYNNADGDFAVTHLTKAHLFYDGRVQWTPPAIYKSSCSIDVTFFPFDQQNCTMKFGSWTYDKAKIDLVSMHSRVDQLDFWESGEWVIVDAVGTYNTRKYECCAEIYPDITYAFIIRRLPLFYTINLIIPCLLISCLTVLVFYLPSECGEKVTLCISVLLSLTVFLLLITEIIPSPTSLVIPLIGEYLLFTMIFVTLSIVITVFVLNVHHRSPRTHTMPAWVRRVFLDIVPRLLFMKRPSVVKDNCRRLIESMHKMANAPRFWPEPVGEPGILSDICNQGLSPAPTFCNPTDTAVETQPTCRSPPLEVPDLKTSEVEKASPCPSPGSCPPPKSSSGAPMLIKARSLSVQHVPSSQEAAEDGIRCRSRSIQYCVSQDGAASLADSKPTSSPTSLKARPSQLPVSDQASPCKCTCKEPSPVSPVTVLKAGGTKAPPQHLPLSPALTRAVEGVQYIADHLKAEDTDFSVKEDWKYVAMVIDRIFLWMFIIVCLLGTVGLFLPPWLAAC
Sequence of Nicotinic α4β2 (P12390 25-500): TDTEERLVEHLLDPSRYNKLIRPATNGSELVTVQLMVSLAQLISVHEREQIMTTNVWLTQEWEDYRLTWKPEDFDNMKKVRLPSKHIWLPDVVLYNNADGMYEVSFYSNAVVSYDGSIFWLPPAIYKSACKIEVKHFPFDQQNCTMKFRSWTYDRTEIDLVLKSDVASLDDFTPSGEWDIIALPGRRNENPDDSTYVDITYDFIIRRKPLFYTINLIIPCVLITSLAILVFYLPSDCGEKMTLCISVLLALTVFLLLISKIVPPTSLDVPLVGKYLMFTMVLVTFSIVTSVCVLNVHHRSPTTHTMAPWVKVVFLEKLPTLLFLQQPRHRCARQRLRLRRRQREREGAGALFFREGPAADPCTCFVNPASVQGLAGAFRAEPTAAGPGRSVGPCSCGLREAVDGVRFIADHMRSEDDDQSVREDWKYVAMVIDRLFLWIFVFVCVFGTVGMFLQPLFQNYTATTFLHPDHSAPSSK
Sequence of 5-HT transporter (P31645 whole entry): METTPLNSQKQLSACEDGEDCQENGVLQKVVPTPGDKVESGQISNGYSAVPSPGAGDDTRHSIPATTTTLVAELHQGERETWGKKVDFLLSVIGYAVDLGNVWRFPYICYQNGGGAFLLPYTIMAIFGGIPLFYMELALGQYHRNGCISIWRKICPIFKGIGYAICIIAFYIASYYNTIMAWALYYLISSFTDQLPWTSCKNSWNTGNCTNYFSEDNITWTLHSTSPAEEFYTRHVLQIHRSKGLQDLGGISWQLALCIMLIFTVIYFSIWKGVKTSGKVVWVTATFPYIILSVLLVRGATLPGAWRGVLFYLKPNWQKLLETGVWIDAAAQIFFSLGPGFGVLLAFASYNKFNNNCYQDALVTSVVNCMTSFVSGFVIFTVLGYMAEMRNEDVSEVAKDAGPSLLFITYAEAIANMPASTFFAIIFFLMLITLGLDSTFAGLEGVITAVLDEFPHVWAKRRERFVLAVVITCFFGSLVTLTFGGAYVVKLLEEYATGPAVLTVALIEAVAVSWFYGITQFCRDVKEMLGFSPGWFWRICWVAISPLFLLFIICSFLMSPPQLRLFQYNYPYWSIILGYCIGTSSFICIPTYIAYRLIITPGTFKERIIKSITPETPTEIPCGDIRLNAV
Sequence of NA transporter (Q63380 1-617): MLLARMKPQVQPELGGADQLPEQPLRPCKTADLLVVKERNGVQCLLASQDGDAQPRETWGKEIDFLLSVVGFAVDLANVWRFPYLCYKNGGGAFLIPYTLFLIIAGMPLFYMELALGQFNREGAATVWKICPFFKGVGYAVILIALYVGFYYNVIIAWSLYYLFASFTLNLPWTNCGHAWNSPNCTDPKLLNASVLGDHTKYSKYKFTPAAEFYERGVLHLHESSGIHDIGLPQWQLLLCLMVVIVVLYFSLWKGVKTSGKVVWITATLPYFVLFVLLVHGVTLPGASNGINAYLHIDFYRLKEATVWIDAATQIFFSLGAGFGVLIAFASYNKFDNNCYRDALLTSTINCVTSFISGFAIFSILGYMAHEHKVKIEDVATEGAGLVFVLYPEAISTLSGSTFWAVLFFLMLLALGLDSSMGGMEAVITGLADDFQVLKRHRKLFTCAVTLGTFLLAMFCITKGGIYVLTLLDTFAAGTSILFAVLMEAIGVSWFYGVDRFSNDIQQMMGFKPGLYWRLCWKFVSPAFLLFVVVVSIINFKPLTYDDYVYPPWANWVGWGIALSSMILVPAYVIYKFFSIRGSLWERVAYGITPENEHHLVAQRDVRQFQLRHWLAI

Question: For `O=c1ccc2ccc(O[C@@H]3C[C@H]4CC[C@@H](C3)N4)cc2o1` [Compound (I), exo-7-(8-aza-bicyclo[3.2.1]oct-3-yloxy)-chromen-2-one], which “Stability at 1 μM” value [1] is on record?
Answer: 88%

Question: And the “Stability at 5 μM” value [1]?
Answer: 98%

Question: What about the AUC(0-t) ([2]; Brain) of the same compound?
Answer: 9350 ng·h/mL

Question: And the AUC(0-t) ([2]; Liver)?
Answer: 38500 ng·h/mL

Question: And the AUC(0-t) ([2]; Lung)?
Answer: 35700 ng·h/mL

Question: What about the AUC(0-t) ([2]; Plasma) of the same compound?
Answer: 2220 ng·h/mL

Question: What about the half-life ([2]; Brain) of the same compound?
Answer: 3 h

Question: And the half-life ([2]; Liver)?
Answer: 2.5 h

Question: And the half-life ([2]; Lung)?
Answer: 2.2 h

Question: And the half-life ([2]; Plasma)?
Answer: 1.1 h

Question: What about the inhibition at 10 µM [3] of the same compound?
Answer: 59%

Question: What about the concentration at 2 h ([4]; NMRI, brain, Female mice, 15 mg/kg p.o. 14 days, read-out: Brain concentration) of the same compound?
Answer: 2640 ng/g

Question: And the Kp at 2 h ([4]; NMRI, brain, Female mice, 15 mg/kg p.o. 14 days, read-out: Brain/plasma ratio)?
Answer: 7

Question: What about the concentration at 2 h ([4]; NMRI, brain, Female mice, 30 mg/kg p.o. 14 days, read-out: Brain concentration) of the same compound?
Answer: 7070 ng/g

Question: What about the Kp at 2 h ([4]; NMRI, brain, Female mice, 30 mg/kg p.o. 14 days, read-out: Brain/plasma ratio) of the same compound?
Answer: 6

Question: What about the concentration at 2 h ([4]; NMRI, brain, Female mice, 60 mg/kg p.o. 14 days, read-out: Brain concentration) of the same compound?
Answer: 11500 ng/g

Question: What about the Kp at 2 h ([4]; NMRI, brain, Female mice, 60 mg/kg p.o. 14 days, read-out: Brain/plasma ratio) of the same compound?
Answer: 6

Question: And the concentration at 2 h ([4]; NMRI, brain, Female mice, 90 mg/kg p.o. 14 days, read-out: Brain concentration)?
Answer: 17100 ng/g

Question: And the concentration at 2 h ([4]; NMRI, brain, Male mice, 15 mg/kg p.o. 14 days, read-out: Brain concentration)?
Answer: 1970 ng/g

Question: What about the Kp at 2 h ([4]; NMRI, brain, Male mice, 15 mg/kg p.o. 14 days, read-out: Brain/plasma ratio) of the same compound?
Answer: 7

Question: And the concentration at 2 h ([4]; NMRI, brain, Male mice, 30 mg/kg p.o. 14 days, read-out: Brain concentration)?
Answer: 4720 ng/g

Question: What about the Kp at 2 h ([4]; NMRI, brain, Male mice, 30 mg/kg p.o. 14 days, read-out: Brain/plasma ratio) of the same compound?
Answer: 6

Question: And the concentration at 2 h ([4]; NMRI, brain, Male mice, 60 mg/kg p.o. 14 days, read-out: Brain concentration)?
Answer: 8080 ng/g

Question: And the Kp at 2 h ([4]; NMRI, brain, Male mice, 60 mg/kg p.o. 14 days, read-out: Brain/plasma ratio)?
Answer: 6

Question: And the concentration at 2 h ([4]; NMRI, brain, Male mice, 90 mg/kg p.o. 14 days, read-out: Brain concentration)?
Answer: 21100 ng/g

Question: And the Kp at 2 h ([4]; NMRI, in vivo, Female mice, 15 mg/kg p.o. 14 days, read-out: Liver/plasma ratio)?
Answer: 18

Question: What about the Kp at 2 h ([4]; NMRI, in vivo, Female mice, 30 mg/kg p.o. 14 days, read-out: Liver/plasma ratio) of the same compound?
Answer: 18

Question: And the Kp at 2 h ([4]; NMRI, in vivo, Female mice, 60 mg/kg p.o. 14 days, read-out: Liver/plasma ratio)?
Answer: 21

Question: And the Kp at 2 h ([4]; NMRI, in vivo, Male mice, 15 mg/kg p.o. 14 days, read-out: Liver/plasma ratio)?
Answer: 28

Question: What about the Kp at 2 h ([4]; NMRI, in vivo, Male mice, 30 mg/kg p.o. 14 days, read-out: Liver/plasma ratio) of the same compound?
Answer: 17

Question: What about the Kp at 2 h ([4]; NMRI, in vivo, Male mice, 60 mg/kg p.o. 14 days, read-out: Liver/plasma ratio) of the same compound?
Answer: 12

Question: What about the concentration at 2 h ([4]; NMRI, liver, Female mice, 15 mg/kg p.o. 14 days, read-out: Liver concentration) of the same compound?
Answer: 7160 ng/g

Question: And the concentration at 2 h ([4]; NMRI, liver, Female mice, 30 mg/kg p.o. 14 days, read-out: Liver concentration)?
Answer: 22500 ng/g

Question: And the concentration at 2 h ([4]; NMRI, liver, Female mice, 60 mg/kg p.o. 14 days, read-out: Liver concentration)?
Answer: 42000 ng/g

Question: And the concentration at 2 h ([4]; NMRI, liver, Male mice, 15 mg/kg p.o. 14 days, read-out: Liver concentration)?
Answer: 8220 ng/g

Question: What about the concentration at 2 h ([4]; NMRI, liver, Male mice, 30 mg/kg p.o. 14 days, read-out: Liver concentration) of the same compound?
Answer: 12700 ng/g

Question: What about the concentration at 2 h ([4]; NMRI, liver, Male mice, 60 mg/kg p.o. 14 days, read-out: Liver concentration) of the same compound?
Answer: 17700 ng/g

Question: And the concentration at 2 h ([4]; NMRI, plasma, Female mice, 15 mg/kg p.o. 14 days, read-out: Plasma concentration)?
Answer: 390 ng/mL

Question: And the concentration at 2 h ([4]; NMRI, plasma, Female mice, 30 mg/kg p.o. 14 days, read-out: Plasma concentration)?
Answer: 1280 ng/mL

Question: And the concentration at 2 h ([4]; NMRI, plasma, Female mice, 60 mg/kg p.o. 14 days, read-out: Plasma concentration)?
Answer: 2000 ng/mL

Question: What about the concentration at 2 h ([4]; NMRI, plasma, Male mice, 15 mg/kg p.o. 14 days, read-out: Plasma concentration) of the same compound?
Answer: 289 ng/mL

Question: What about the concentration at 2 h ([4]; NMRI, plasma, Male mice, 30 mg/kg p.o. 14 days, read-out: Plasma concentration) of the same compound?
Answer: 762 ng/mL

Question: What about the concentration at 2 h ([4]; NMRI, plasma, Male mice, 60 mg/kg p.o. 14 days, read-out: Plasma concentration) of the same compound?
Answer: 1420 ng/mL

Question: And the “Linearity of kinetics after repeat dosing” value ([4]; mice, 15-90 mg/kg p.o. 14 days, 5% glucose)?
Answer: tendency to sub-linear kinetics

Question: And the Kp at 2 h ([4]; brain, Female mice, 90 mg/kg p.o. 14 days, read-out: Brain/plasma ratio)?
Answer: 4

Question: What about the Kp at 2 h ([4]; brain, Male mice, 90 mg/kg p.o. 14 days, read-out: Brain/plasma ratio) of the same compound?
Answer: 4

Question: And the Kp at 2 h ([4]; in vivo, Female mice, 90 mg/kg p.o. 14 days, read-out: Liver/plasma ratio)?
Answer: 16

Question: What about the Kp at 2 h ([4]; in vivo, Male mice, 90 mg/kg p.o. 14 days, read-out: Liver/plasma ratio) of the same compound?
Answer: 16

Question: And the concentration at 2 h ([4]; liver, Female mice, 90 mg/kg p.o. 14 days, read-out: Liver concentration)?
Answer: 63300 ng/g

Question: And the concentration at 2 h ([4]; liver, Male mice, 90 mg/kg p.o. 14 days, read-out: Liver concentration)?
Answer: 75000 ng/g

Question: What about the concentration at 2 h ([4]; plasma, Female mice, 90 mg/kg p.o. 14 days, read-out: Plasma concentration) of the same compound?
Answer: 3980 ng/mL

Question: And the concentration at 2 h ([4]; plasma, Male mice, 90 mg/kg p.o. 14 days, read-out: Plasma concentration)?
Answer: 4730 ng/mL

Question: What about the “Body temperature in resting conditions” value ([5]; 0.1, 1 and 3 mg/kg per oral, NMRI mice) of the same compound?
Answer: did not change body temperature in resting conditions

Question: And the Stress-induced temperature rise ([5]; 0.1, 1 and 3 mg/kg per oral, NMRI mice, all three doses)?
Answer: temperature rise was significantly prevented

Question: And the MED ([5]; mSIH, p.o., −60 min)?
Answer: 0.3 mg/kg

Question: And the pIC50 [6]?
Answer: < 4.00

Question: What about the pIC50 [7] of the same compound?
Answer: 7.07

Question: What about the pIC50 [8] of the same compound?
Answer: 4.51

Question: And the Activity [9]?
Answer: increase in activity (sedation and stereotypic behaviour)

Question: What about the Body weight [9] of the same compound?
Answer: no significant changes in bodyweight

Question: And the MED ([10]; mLA, 1, 3, 10 mg/kg p.o. −60 min + SCH23390 0.00375 mg/kg s.c. −60 min)?
Answer: 10 mg/kg

Question: And the MED ([10]; mLA, p.o. 0 min)?
Answer: 10 mg/kg

Question: And the fraction unbound at 2710 ng/ml [11]?
Answer: 0.871

Question: And the pKi [12]?
Answer: 6.23

Question: And the inhibition at 10 µM ([12]; NET, Human, 10 μM)?
Answer: 92%

Question: What about the pKi [13] of the same compound?
Answer: 9.62

Question: What about the fraction unbound at 2710 ng/ml [14] of the same compound?
Answer: 0.747

Question: What about the pKi [15] of the same compound?
Answer: 6.81

Question: What about the inhibition at 10 µM ([15]; DAT, Human, 10 μM) of the same compound?
Answer: 97%

Question: And the pIC50 [16]?
Answer: 7.00

Question: What about the pKi [16] of the same compound?
Answer: 7.00

Question: And the Human transporter ratio ([16]; DA versus 5-HT)?
Answer: 56
